In US12528944B2, “Live-cell fluorescent mitochondrial stains” (HOWARD HUGHES MEDICAL INSTITUTE, priority 2022, dated 2026):
Entries after “also recorded” stand apart in the source; their conditions may differ.

How the values were obtained:
[1] = Quantum yield determination (absolute, integrating sphere)
Description: Unless otherwise noted, Φf values were measured in PBS, pH 7.4. This instrument uses an integrating sphere to determine photons absorbed and emitted by a sample. Measurements were carried out using dilute samples (A<0.1) and self-absorption corrections^24 were performed using the instrument software. Reported values are averages (n=3).

[2] = UV-vis and fluorescence spectroscopy; details: for absorptivity, quantum yield and brightness in nonpolar conditions relative to PBS: SDS micelles and dioxane:water mixtures
Description: Spectroscopy was performed using 1-cm path length, 3.5-mL quartz cuvettes from Starna Cells. All measurements were taken at ambient temperature (22±2° C.). […] Fluorescence spectra were recorded on a Cary Eclipse fluorometer (Varian). Unless otherwise noted, maximum absorption wavelength (λabs), extinction coefficient (ε), and maximum emission wavelength (λem) were measured in PBS, pH 7.4. Reported values and spectra are averages (n=3).

[3] = Chemical stability by fluorescence in different buffers and media; format: physicochemical; details: 1 μM; citrate pH 5, PBS pH 7.4, Tris pH 9, DMEM, DMEM+10% FBS
Description: Measurement of chemical stability by fluorescence (FIG. 5A-5B). To compare the chemical stability of 15 in different conditions using changes in fluorescence, samples (1 μM) of 15 were prepared in the following solutions: citrate buffer, pH 5; PBS, pH 7.4; Tris buffer, pH 9; DMEM; and DMEM containing 10% v/v FBS (DMEM+FBS). 200 μL of each solution (n=3) was placed in a black, clear-bottom 96-well microplate (Nunc, 165305) and sealed with an adhesive film. The fluorescence of the DAB dye was monitored using 445 nm excitation and 510-550 nm emission (integrated signal) reading from the bottom of the plate using a TECAN Spark microplate reader controlled with SparkControl software.

[4] = Photochemistry under 405 nm illumination, analysis by LC-MS; format: physicochemical; details: PBS, 5 and 20 min
Description: To investigate photochemistry, solutions of 8, 11, and 13-15 (100 μM) were prepared in PBS and placed in a glass vial. An aliquot of this freshly prepared solution was immediately analyzed by LC-MS (−hv). The solution was then irradiated with 405 nm light from an LED array (LOCTITE CL20 flood array) for 5 min (t=5 min) and 20 min (t=20 min) followed by analysis using LC-MS. Photochemical adducts 17/17i and 18/18i were purified and the spectral properties of these isomeric mixtures were analyzed. These compounds were then treated with 1 or 2 equivalents of NaOH(aq) to hydrolyze the iminium bond; the resulting oxidized coumarin products S1/S1i and S2/S2i were observed by LC-MS.

[5] = system: mitochondria of live U2OS cells; assay: Cellular retention after dye-free media exchange washes; format: cell-based; details: 1 h, 37° C., 0, 1 or 2 dye-free media washes
Description: To compare cellular retention of 15, 20, and MitoView 405, U2OS cells were incubated with 15 (200 nM), 20 (200 nM) or MitoView 405 (100 nM; Biotium) for 1 h at 37° C.

[6] = Chemical stability (iminium hydrolysis) by LC-MS; format: physicochemical; details: 25 μM; citrate pH 5, PBS pH 7.4, Tris pH 9; sampled every 30 min over 12 h
Description: Measurement of chemical stability and photostability by tandem high-pressure liquid chromatography-mass spectrometry (LC-MS; FIG. 3A-D, FIG. 4A-4D, FIG. 6, FIG. 10). To examine the chemical stability and photostability of the DAB dyes, samples were assessed by tandem high-pressure liquid chromatography-mass spectrometry (LC-MS) using an Agilent 1200 LC-MS system equipped with an autosampler, diode array detector, and mass spectrometry detector (ESI; positive ion mode) using a 4.6×150 mm Gemini NX-C18 column with a 5-95% or 5-50% gradient of CH3CN in H2O containing constant 0.1% (v/v) TFA. Chromatograms were monitored using absorbance at 254 nm or 400 nm. To investigate chemical hydrolysis, solutions of 8, 11, and 13-15 (100 μM) were prepared in PBS, pH 7.4. An aliquot of this freshly prepared solution was immediately analyzed by LC-MS (t=0). The solution was then incubated at ambient temperature protected from light for 48 h and analyzed again by LC-MS (t=48 h). Standard samples of coumarins 6, 10, and 12 (100 μM, PBS) were analyzed in the same manner. To compare the stability of compounds 15 and 20 under different conditions, solutions of each dye (25 μM) in citrate buffer, pH 5, PBS, pH 7.4, or Tris buffer, pH 9 were prepared in an autosampler vial and the sample was analyzed using the LC-MS instrumentation every 30 min. […]

U2OS cells = assay: In-cell photostability experiments; format: cell-based; details: 405 nm laser, 15 photobleaching cycles
Description: In-cell photostability experiments (FIG. 9C). U2OS cells were incubated with 15 (200 nM), 20 (200 nM) or MitoView 405 (100 nM; Biotium) for 1 h at 37° C. and imaged live without washing using a Leica SP8 Falcon confocal microscope with enabled adaptive focus control (AFC), an HC PL-APO 86×/1.20 water objective, and a 405 nm diode laser at 58.9% laser power. […] These images were processed using FIJI.^25

| SMILES | fluorescence quantum yield (Φf) ([1]; PBS, pH 7.4) | Stokes shift ([2]; PBS, pH 7.4) | bathochromic shift in λabs relative to parent coumarin ([2]; PBS, pH 7.4) | shift in λem relative to parent coumarin ([2]; PBS, pH 7.4) | maximum fluorescence emission wavelength (λem) ([2]; PBS, pH 7.4) | absorptivity, quantum yield and brightness in nonpolar conditions relative to PBS [2] | other results |
| --- | --- | --- | --- | --- | --- | --- | --- |
| CCN(CC)c1ccc2c(C)cc(=O)oc2c1 [Compound 6, 7-diethylamino-4-methylcoumarin, reference compound] | 0.06 | – | – | – | – | – | – |
| CCN(CC)c1ccc2c(C)cc(N(CC)CC)[o+]c2c1.O=C([O-])C(F)(F)F [Compound 8, 2,7-Bis(diethylamino)-4-methylbenzopyrylium trifluoroacetate] | 0.16 | 65 nm | 45 nm | 26 nm | – | – | – |
| Cc1cc(N2CCC2)[o+]c2cc(N3CCC3)ccc12.O=C([O-])C(F)(F)F [Compound 11, 2,7-Di(azetidin-1-yl) 4-methylbenzopyrylium trifluoroacetate] | 0.79 | 99 nm | 48 nm | 34 nm | – | – | – |
| CC[N+](CC)=c1cc(C)c2cc3c4c(c2o1)CCCN4CCC3.O=C([O-])C(F)(F)F [Compound 13, N-ethyl-N-(9-methyl-2,3,6,7-tetrahydro-1H,5H,11H-pyrano[2,3-f]pyrido[3,2,1-ij]quinolin-11-ylidene)ethanaminium trifluoroacetate] | – | 68 nm | – | – | 513 nm | – | – |
| Cc1cc(=[N+]2CCCCC2)oc2c3c4c(cc12)CCCN4CCC3.O=C([O-])C(F)(F)F [Compound 15, 1-(9-methyl-2,3,6,7-tetrahydro-1H,5H,11H-pyrano[2,3-f]pyrido[3,2,1-ij]quinolin-11-ylidene)piperidin-1-ium trifluoroacetate] | – | – | – | – | – | higher absorptivity and fluorescence quantum yield | rate of hydrolysis in different buffer conditions [3]: modestly higher rates of hydrolysis was observed at elevated pH or in cell culture media containing serum; photochemical oxidation [4]: no photochemically driven oxidation was detected on the piperidine ring; cellular signal upon media exchange (retention) ([5]; trifluoroacetate): rapidly decreased upon media exchange; also recorded: signal rapidly decreased |
| Cc1cc(=[N+]2CCC(CCCC3CC[N+](=c4cc(C)c5cc6c7c(c5o4)CCCN7CCC6)CC3)CC2)oc2c3c4c(cc12)CCCN4CCC3.O=C([O-])C(F)(F)F.O=C([O-])C(F)(F)F (stereo not shown) [Compound 20, 4,4′-(propane-1,3-diyl)bis(1-(9-methyl-2,3,6,7-tetrahydro-1H,5H,11H-pyrano[2,3-f]pyrido[3,2,1-ij]quinolin-11-ylidene)piperidin-1-ium) trifluoroacetate] | 0.45 | – | – | – | 524 nm | brighter in dioxane:water mixtures | rate of hydrolysis relative to 15 [6]: slightly higher rate of hydrolysis; cellular signal upon media exchange (retention) [5]: retained; resistance to photobleaching in live cells (U2OS cells): best overall photostability; extinction coefficient at λabs (ε) ([2]; PBS containing 0.1% w/v SDS): 78,900 M^−1 cm^−1; maximum absorption wavelength (λabs) ([2]; PBS, pH 7.4): 447 nm; extinction coefficient at λabs (ε) ([2]; aqueous solution (PBS, pH 7.4)): 45,200 M^−1 cm^−1; fluorescence quantum yield (Φf) ([1]; PBS containing 0.1% w/v SDS): 0.83 |
